Drawing on patent publication EP4786487A1, “PEPTIDE” (Peptidream Inc, priority 2023, dated 2025), this text covers IC50 and Selectivity for 11 compounds.

What all share (type): cell-based
Experiment [1] addresses T1, Myostatin (Homo sapiens, UniProt O14793).
T1 construct: active myostatin (also called mature myostatin) is a homodimer consisting of two C-terminal growth factor domains; purchased R&D systems 788-G8/CF
T1 sequence (O14793 267-375): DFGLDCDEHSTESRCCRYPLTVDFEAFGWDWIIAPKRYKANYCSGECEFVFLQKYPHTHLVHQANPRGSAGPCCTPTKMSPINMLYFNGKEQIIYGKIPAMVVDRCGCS
Briefly: Reporter gene assay for myostatin signaling in HepG2 cell line, Evaluation Procedure (1), myostatin inhibition. The settings on record: Method A: Myostatin 10 ng/mL; read-out: IC50 (Luciferase) Myostatin HepG2. The essentials:
(§1)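 IC50 derived from One-Glo luciferase luminescence after 20–24 h at 37 °C. Peptides titrated 4-fold at 0.006–100 nmol/L against myostatin or 0.12–2000 nmol/L against GDF-11 in HepG2 cells carrying a transfected CAGA12-luciferase reporter, kept in 0.1% BSA EMEM.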

For experiment [2], the system named is Myostatin. The description is as above. Particulars: Method A; GDF-11 IC50 versus Myostatin IC50. The essentials:
as §1

In a further experiment the target is T2, GDF-11 (Homo sapiens, UniProt O95390).
T2 construct: purchased R&D systems 1958-GD-G8/CF
T2 sequence (O95390 299-407): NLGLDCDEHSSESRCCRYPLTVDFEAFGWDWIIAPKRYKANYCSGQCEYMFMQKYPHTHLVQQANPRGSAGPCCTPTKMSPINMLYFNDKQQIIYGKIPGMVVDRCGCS
In words: Reporter gene assay for myostatin signaling in HepG2 cell line, Evaluation Procedure (1), GDF-11 inhibition. Particulars: Method A: GDF-11 10 ng/mL; read-out: IC50 (Luciferase) GDF-11 HepG2. The method in brief: as §1
A general note: Reporter assays use an easily measured gene product as a stand-in for the process of interest.

SMILES strings stand for the structures. pIC50: −log10 of the molar value. Starred links: 1 amine or outer side, 2 acyl side, 3 side chain; linkers in the order of their positions; H or OH if unused. Positions of bridges follow the written chain, without caps; N, C: chain ends. Non-standard residues stand in square brackets, D forms with d. Residues, ends and D or L forms follow the SMILES beside them. Phe(3-OCH2COOH) = N[C@@H](Cc1cccc(OCC(=O)O)c1)C(=O)O; Phe(4-COOH) = N[C@@H](Cc1ccc(C(=O)O)cc1)C(=O)O; Bip = N[C@@H](Cc1ccc(-c2ccccc2)cc1)C(=O)O; Gly(N(CH2)3COOH) = O=C(O)CCCNCC(=O)O; X1 = CCCCCCC[C@H](N[*:1])C(=O)[*:2]; NMeF = CN[C@@H](Cc1ccccc1)C(=O)O; NMeA = CN[C@@H](C)C(=O)O; Sar = CNCC(=O)O

Consider `CCCCCCC[C@@H]1NC(=O)[C@H](Cc2ccccc2)N(C)C(=O)[C@H](CCCNC(=N)N)NC(=O)[C@H](Cc2ccc(C(=O)O)cc2)NC(=O)[C@H](Cc2ccc(O)cc2)NC(=O)CN(C)C(=O)[C@H]([C@@H](C)CC)NC(=O)[C@H](Cc2ccccc2)N(C)C(=O)[C@H](Cc2ccc(O)cc2)NC(=O)[C@H](Cc2ccc(-c3ccccc3)cc2)NC(=O)[C@H](C)NC(=O)CN(CCCC(=O)O)C(=O)CSC[C@H](C(=O)O)NC(=O)[C@H](Cc2ccccc2)N(C)C(=O)[C@H](C)N(C)C1=O` [Myostatin_99_v179] ({CH2CO}-[Gly(N(CH2)3COOH)]A[Bip]Y[NMeF]I[Sar]Y[Phe(4-COOH)]R[NMeF][X1][NMeA][NMeF][dC]-OH; thioether N-15), for which the negative-log IC50 (pIC50) at Myostatin [1] was 8.82; at GDF-11, 6.79. For the same compound, the Selectivity in the experiment on Myostatin [2] is given as 108.

For the compound `CCCCCCC[C@@H]1NC(=O)[C@H](Cc2ccccc2)N(C)C(=O)[C@H](CCCNC(=N)N)NC(=O)[C@H](Cc2ccc(C(=O)O)cc2)NC(=O)[C@H](Cc2ccc(O)cc2)NC(=O)[C@H](C)N(C)C(=O)[C@H]([C@@H](C)CC)NC(=O)[C@H](Cc2ccccc2)N(C)C(=O)[C@H](Cc2ccc(O)cc2)NC(=O)[C@H](Cc2c[nH]c3ccccc23)NC(=O)[C@H](C)NC(=O)CN(CCCC(=O)O)C(=O)CSC[C@H](C(=O)O)NC(=O)[C@H](Cc2ccccc2)N(C)C(=O)[C@H](C)N(C)C1=O` [Myostatin_99_v181] ({CH2CO}-[Gly(N(CH2)3COOH)]AWY[NMeF]I[NMeA]Y[Phe(4-COOH)]R[NMeF][X1][NMeA][NMeF][dC]-OH; thioether N-15), the pIC50 on Myostatin [1] was 8.35; on GDF-11 it was 6.71. The Selectivity in the experiment on Myostatin [2] was 43.

For `CC[C@H](C)[C@@H]1NC(=O)[C@H](Cc2ccccc2)N(C)C(=O)[C@H](Cc2ccc(O)cc2)NC(=O)[C@H](Cc2ccc(-c3ccccc3)cc2)NC(=O)[C@H](C)NC(=O)CN(CCCC(=O)O)C(=O)CSC[C@H](C(=O)O)NC(=O)[C@H](Cc2ccccc2)N(C)C(=O)[C@H](C)N(C)C(=O)[C@H](CC(C)C)NC(=O)[C@H](Cc2ccccc2)N(C)C(=O)[C@H](CCCNC(=N)N)NC(=O)[C@H](Cc2ccc(C(=O)O)cc2)NC(=O)[C@H](Cc2ccc(O)cc2)NC(=O)[C@H](C)N(C)C1=O` [Myostatin_99_v182] ({CH2CO}-[Gly(N(CH2)3COOH)]A[Bip]Y[NMeF]I[NMeA]Y[Phe(4-COOH)]R[NMeF]L[NMeA][NMeF][dC]-OH; thioether N-15), the pIC50 on Myostatin [1] was 7.28; at GDF-11, 5.87. In the experiment on Myostatin [2], this compound had a Selectivity of 26.

For the compound `CC[C@H](C)[C@@H]1NC(=O)[C@H](Cc2ccccc2)N(C)C(=O)[C@H](Cc2ccc(O)cc2)NC(=O)[C@H](Cc2ccc(-c3ccccc3)cc2)NC(=O)[C@H](C)NC(=O)CN(CCCC(=O)O)C(=O)CSC[C@H](C(=O)O)NC(=O)[C@H](Cc2ccccc2)N(C)C(=O)[C@H](C)N(C)C(=O)[C@H](CC(C)C)NC(=O)[C@H](Cc2ccccc2)N(C)C(=O)[C@H](CCCNC(=N)N)NC(=O)[C@H](Cc2ccc(C(=O)O)cc2)NC(=O)[C@H](Cc2cccc(OCC(=O)O)c2)NC(=O)CN(C)C1=O` [Myostatin_99_v184] ({CH2CO}-[Gly(N(CH2)3COOH)]A[Bip]Y[NMeF]I[Sar][Phe(3-OCH2COOH)][Phe(4-COOH)]R[NMeF]L[NMeA][NMeF][dC]-OH; thioether N-15), the figures for the pIC50 at Myostatin [1] and at GDF-11 were 7.85 and 5.74, respectively. Further, in the experiment with Myostatin [2], the Selectivity stood at 129.

Turning to `CC[C@H](C)[C@@H]1NC(=O)[C@H](Cc2ccccc2)N(C)C(=O)[C@H](Cc2ccc(O)cc2)NC(=O)[C@H](Cc2ccc(-c3ccccc3)cc2)NC(=O)[C@H](CO)NC(=O)CN(CCCC(=O)O)C(=O)CSC[C@H](C(=O)O)NC(=O)[C@H](Cc2ccccc2)N(C)C(=O)[C@H](C)N(C)C(=O)[C@H](CC(C)C)NC(=O)[C@H](Cc2ccccc2)N(C)C(=O)[C@H](CCCNC(=N)N)NC(=O)[C@H](Cc2ccc(C(=O)O)cc2)NC(=O)[C@H](Cc2ccc(O)cc2)NC(=O)CN(C)C1=O` [Myostatin_99_v186] ({CH2CO}-[Gly(N(CH2)3COOH)]S[Bip]Y[NMeF]I[Sar]Y[Phe(4-COOH)]R[NMeF]L[NMeA][NMeF][dC]-OH; thioether N-15), the negative-log IC50 (pIC50) on Myostatin [1] was 7.36; at GDF-11, 6.03. Moreover, the Selectivity in the experiment with Myostatin [2] came to 22.

`CC[C@H](C)[C@@H]1NC(=O)[C@H](Cc2ccccc2)N(C)C(=O)[C@H](Cc2ccc(O)cc2)NC(=O)[C@H](Cc2c[nH]c3ccccc23)NC(=O)[C@H](CO)NC(=O)CN(CCCC(=O)O)C(=O)CSC[C@H](C(=O)O)NC(=O)[C@H](Cc2ccccc2)N(C)C(=O)[C@H](C)N(C)C(=O)[C@H](CC(C)C)NC(=O)[C@H](Cc2ccccc2)N(C)C(=O)[C@H](CCCNC(=N)N)NC(=O)[C@H](Cc2ccc(C(=O)O)cc2)NC(=O)[C@H](Cc2ccc(O)cc2)NC(=O)[C@H](C)N(C)C1=O` [Myostatin_99_v188] ({CH2CO}-[Gly(N(CH2)3COOH)]SWY[NMeF]I[NMeA]Y[Phe(4-COOH)]R[NMeF]L[NMeA][NMeF][dC]-OH; thioether N-15): the pIC50 on Myostatin [1] was 7.26; at GDF-11, 6.04. The Selectivity with Myostatin [2] is on record as 16.

Regarding `CC[C@H](C)[C@@H]1NC(=O)[C@H](Cc2ccccc2)N(C)C(=O)[C@H](Cc2ccc(O)cc2)NC(=O)[C@H](Cc2ccc(-c3ccccc3)cc2)NC(=O)[C@H](C)NC(=O)[C@H](C)NC(=O)CSC[C@H](C(=O)O)NC(=O)[C@H](Cc2ccccc2)N(C)C(=O)[C@H](C)N(C)C(=O)[C@H](CC(C)C)NC(=O)[C@H](Cc2ccccc2)N(C)C(=O)[C@H](CCCNC(=N)N)NC(=O)[C@H](Cc2ccc(C(=O)O)cc2)NC(=O)[C@H](Cc2ccc(O)cc2)NC(=O)CN(C)C1=O` [Myostatin_99_v189] ({CH2CO}-AA[Bip]Y[NMeF]I[Sar]Y[Phe(4-COOH)]R[NMeF]L[NMeA][NMeF][dC]-OH; thioether N-15), the values for the pIC50 at Myostatin [1] and on GDF-11 were 8.16 and 6.63, respectively. The compound also displayed a Selectivity in the experiment on Myostatin [2] of 34.

Take `CC[C@H](C)[C@@H]1NC(=O)[C@H](Cc2ccccc2)N(C)C(=O)[C@H](Cc2ccc(O)cc2)NC(=O)[C@H](Cc2c[nH]c3ccccc23)NC(=O)[C@H](C)NC(=O)[C@H](C)NC(=O)CSC[C@H](C(=O)O)NC(=O)[C@H](Cc2ccccc2)N(C)C(=O)[C@H](C)N(C)C(=O)[C@H](CC(C)C)NC(=O)[C@H](Cc2ccccc2)N(C)C(=O)[C@H](CCCNC(=N)N)NC(=O)[C@H](Cc2ccc(C(=O)O)cc2)NC(=O)[C@H](Cc2ccc(O)cc2)NC(=O)[C@H](C)N(C)C1=O` [Myostatin_99_v191] ({CH2CO}-AAWY[NMeF]I[NMeA]Y[Phe(4-COOH)]R[NMeF]L[NMeA][NMeF][dC]-OH; thioether N-15): the figures for the pIC50 at Myostatin [1] and on GDF-11 were 8.09 and 6.55, respectively. The compound further yielded a Selectivity in the experiment with Myostatin [2] of 35.

Take `CC[C@H](C)[C@@H]1NC(=O)[C@H](Cc2ccccc2)N(C)C(=O)[C@H](Cc2ccc(O)cc2)NC(=O)[C@H](Cc2c[nH]c3ccccc23)NC(=O)[C@H](C)NC(=O)[C@H](C)NC(=O)CSC[C@H](C(=O)O)NC(=O)[C@H](Cc2ccccc2)N(C)C(=O)[C@H](C)N(C)C(=O)[C@H](CC(C)C)NC(=O)[C@H](Cc2ccccc2)N(C)C(=O)[C@H](CCCNC(=N)N)NC(=O)[C@H](Cc2ccc(C(=O)O)cc2)NC(=O)[C@H](Cc2cccc(OCC(=O)O)c2)NC(=O)CN(C)C1=O` [Myostatin_99_v192] ({CH2CO}-AAWY[NMeF]I[Sar][Phe(3-OCH2COOH)][Phe(4-COOH)]R[NMeF]L[NMeA][NMeF][dC]-OH; thioether N-15): the values for the pIC50 at Myostatin [1] and at GDF-11 were 7.92 and 5.69, respectively. In the experiment with Myostatin [2], this compound registered a Selectivity of 170.

On to `CCCCCCC[C@@H]1NC(=O)[C@H](Cc2ccccc2)N(C)C(=O)[C@H](CCCNC(=N)N)NC(=O)[C@H](Cc2ccc(C(=O)O)cc2)NC(=O)[C@H](Cc2ccc(O)cc2)NC(=O)CN(C)C(=O)[C@H]([C@@H](C)CC)NC(=O)[C@H](Cc2ccccc2)N(C)C(=O)[C@H](Cc2ccc(O)cc2)NC(=O)[C@H](Cc2c[nH]c3ccccc23)NC(=O)[C@H](C)NC(=O)[C@H](C)NC(=O)CSC[C@H](C(=O)O)NC(=O)[C@H](Cc2ccccc2)N(C)C(=O)[C@H](C)N(C)C1=O` [Myostatin_99_v193] ({CH2CO}-AAWY[NMeF]I[Sar]Y[Phe(4-COOH)]R[NMeF][X1][NMeA][NMeF][dC]-OH; thioether N-15), for which the pIC50 was 9.00 on Myostatin [1] and 7.24 at GDF-11. In addition, the Selectivity with Myostatin [2] came to 57.

As to `CCCCCCC[C@@H]1NC(=O)[C@H](Cc2ccccc2)N(C)C(=O)[C@H](CCCNC(=N)N)NC(=O)[C@H](Cc2ccc(C(=O)O)cc2)NC(=O)[C@H](Cc2cccc(OCC(=O)O)c2)NC(=O)[C@H](C)N(C)C(=O)[C@H]([C@@H](C)CC)NC(=O)[C@H](Cc2ccccc2)N(C)C(=O)[C@H](Cc2ccc(O)cc2)NC(=O)[C@H](Cc2c[nH]c3ccccc23)NC(=O)[C@H](C)NC(=O)[C@H](C)NC(=O)CSC[C@H](C(=O)O)NC(=O)[C@H](Cc2ccccc2)N(C)C(=O)[C@H](C)N(C)C1=O` [Myostatin_99_v194] ({CH2CO}-AAWY[NMeF]I[NMeA][Phe(3-OCH2COOH)][Phe(4-COOH)]R[NMeF][X1][NMeA][NMeF][dC]-OH; thioether N-15), the values for the pIC50 at Myostatin [1] and at GDF-11 were 8.92 and 6.86, respectively. Also, the Selectivity with Myostatin [2] was found to be 116.

The term pIC50 denotes −log10 of the IC50, conventionally taken in molar units.
